Experimental data: ChEMBL document CHEMBL6121052, “Design of ROS-Triggered Sesquiterpene Lactone SC Prodrugs as TrxR1 Covalent Inhibitors for the Treatment of Non-Small Cell Lung Cancer” (J Med Chem, 2025)
Calls of active or inactive are those of the source. The rule behind the calls is not given here.

Columns and labels:
A549 [1] = assay: Induction of apoptosis in human A549 cells assessed as early apoptotic cells at 2.5 uM measured after 48 hrs by Annexin V/FITC staining based flow cytometric analysis (reference value: 1.31 %); format: functional
A549 [2] = assay: Induction of ROS accumulation in human TrxR1 knockdown A549 cells incubated for 24 hrs; format: functional, cell-based
[3] = Toxicity in BALB/c mouse assessed as lung damage at 5 to 10 mg/kg, po administered every 2 days for 2 weeks by H and E staining based analysis; format: organism-based; conditions: in vivo, 336 h, dose 5-10 mg/kg
NCI-H1299 [4] = assay: Induction of ferroptosis in human NCI-H1299 cells assessed as effect on GPX4 protein expression at 10 uM incubated for 24 hrs by Western blotting analysis; format: functional, cell-based
NCI-H1299 [5] = assay: Induction of ROS accumulation in human TrxR1 knockdown NCI-H1299 cells incubated for 24 hrs; format: functional, cell-based
[6] = Toxicity in BALB/c mouse assessed as change in viscera index at 5 to 10 mg/kg, po administered every 2 days for 2 weeks; format: organism-based; conditions: in vivo, 336 h, dose 5-10 mg/kg
A549 [7] = assay: Induction of ferroptosis in human A549 cells assessed as effect on GPX4 protein expression at 10 uM incubated for 24 hrs by Western blotting analysis; format: functional, cell-based
NCI-H1299 [8] = assay: Induction of apoptosis in human NCI-H1299 cells assessed as necrotic cells at 2.5 uM measured after 48 hrs by Annexin V/FITC staining based flow cytometric analysis (reference value: 0.62%); format: functional
NCI-H1299 [9] = assay: Induction of morphological changes in human NCI-H1299 cells assessed as increase in number of contracted shapes upto 10 uM; format: functional, cell-based
[10] = molecular target: T1, Thioredoxin reductase 1, cytoplasmic (Homo sapiens) (UniProt Q16881); assay: Inhibition of TrxR1 in human A549 cells; format: cell-based; conditions: dose <= 10.0 µM
T1 sequence (whole entry): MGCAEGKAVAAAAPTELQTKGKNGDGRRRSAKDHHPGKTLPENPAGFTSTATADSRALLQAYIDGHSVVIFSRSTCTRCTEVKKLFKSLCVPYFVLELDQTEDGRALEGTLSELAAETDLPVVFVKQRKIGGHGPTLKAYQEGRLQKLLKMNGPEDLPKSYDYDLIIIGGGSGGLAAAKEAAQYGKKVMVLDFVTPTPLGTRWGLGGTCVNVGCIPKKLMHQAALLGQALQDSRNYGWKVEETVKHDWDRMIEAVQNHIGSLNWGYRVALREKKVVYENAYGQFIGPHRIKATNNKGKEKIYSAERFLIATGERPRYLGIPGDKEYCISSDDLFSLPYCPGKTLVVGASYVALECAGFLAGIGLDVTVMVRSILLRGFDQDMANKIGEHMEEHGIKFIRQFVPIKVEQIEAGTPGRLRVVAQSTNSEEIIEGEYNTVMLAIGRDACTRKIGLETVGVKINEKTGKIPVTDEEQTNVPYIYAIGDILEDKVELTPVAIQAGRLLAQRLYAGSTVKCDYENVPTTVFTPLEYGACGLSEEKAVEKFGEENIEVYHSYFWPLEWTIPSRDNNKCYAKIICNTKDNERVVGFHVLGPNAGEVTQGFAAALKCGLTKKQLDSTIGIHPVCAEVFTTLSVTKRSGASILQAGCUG

A549 [11] = assay: Inhibition of colony formation in human A549 cells assessed as reduction in colony number at 4 uM incubated for 14 days by crystal violet staining based analysis; format: functional, cell-based; conditions: time 14.0 day
A549 [12] = assay: Induction of apoptosis in human A549 cells assessed as necrotic cells at 5 uM measured after 48 hrs by Annexin V/FITC staining based flow cytometric analysis (reference value: 2.52 %); format: functional
A549 [13] = assay: Induction of apoptosis in human A549 cells assessed as necrotic cells at 10 uM measured after 48 hrs by Annexin V/FITC staining based flow cytometric analysis (reference value: 2.52 %); format: functional
[14] = molecular target: T1, Thioredoxin reductase 1, cytoplasmic (Homo sapiens); assay: Inhibition of TrxR1 in human NCI-H2291 cells; format: cell-based; conditions: dose <= 10.0 µM
A549 [15] = assay: Induction of apoptosis in human A549 cells assessed as chromatin condensation upto 10 uM by Hoechst 33258 staining based fluorescence microscopic analysis; format: functional, cell-based
NCI-H1299 [16] = assay: Antitumor activity against human NCI-H1299 cells xenografted in BALB/c mouse assessed as reduction in tumor weight at 5 to 10 mg/kg, po administered every 2 days for 2 weeks; format: functional, organism-based; conditions: dose 5-10 mg/kg
NCI-H1299 [17] = assay: Induction of apoptosis in human NCI-H1299 cells assessed as late apoptotic cells at 5 uM measured after 48 hrs by Annexin V/FITC staining based flow cytometric analysis (reference value: 1.96%); format: functional
[18] = Half life in male Sprague-Dawley rat at 10 mg/kg, iv measured upto 24 hrs by LC-MS/MS analysis; format: ADME, organism-based; conditions: in vivo
A549 [19] = assay: Induction of apoptosis in human A549 cells assessed as increase in Bax expression at upto 10 uM incubated for 24 hrs by Western blot analysis; format: functional, cell-based
A549 [20] = assay: Induction of ferroptosis in human A549 cells assessed as cell death by MTT assay; format: functional, cell-based
NCI-H1299 [21] = assay: Antitumor activity against human NCI-H1299 cells xenografted in po dosed BALB/c mouse assessed as reduction in tumor growth administered every 2 days for 2 weeks; format: functional, organism-based; conditions: dose 5-10 mg/kg
A549 [22] = assay: Induction of apoptosis in human A549 cells assessed as late apoptotic cells at 5 uM measured after 48 hrs by Annexin V/FITC staining based flow cytometric analysis (reference value: 5.37%); format: functional
NCI-H1299 [23] = assay: Induction of apoptosis in human NCI-H1299 cells assessed as late apoptotic cells at 2.5 uM measured after 48 hrs by Annexin V/FITC staining based flow cytometric analysis (reference value: 1.96%); format: functional
NCI-H1299 [24] = assay: Induction of apoptosis in human NCI-H1299 cells assessed as viable cells at 5 uM measured after 48 hrs by Annexin V/FITC staining based flow cytometric analysis (reference value: 96.3%); format: functional; conditions: read-out: Activity
NCI-H1299 [25] = assay: Induction of apoptosis in human NCI-H1299 cells assessed as decrease in BCl-2 expression at upto 10 uM incubated for 24 hrs by Western blot analysis; format: functional, cell-based
A549 [26] = assay: Antiproliferative activity against human A549 cells assessed as increase in cell viability in presence of NAC; format: functional, cell-based
NCI-H1299 [27] = assay: Induction of ferroptosis in human NCI-H1299 cells assessed as increase in intracellular LPO accumulation at 5 uM incubated for 24 hrs by flow cytometry analysis; format: functional, cell-based
A549 [28] = assay: Downregulation of TrxR1 level in human A549 cells upto 10 uM incubated for 24 hrs by Western blot analysis; format: functional, cell-based
NCI-H1299 [29] = assay: Induction of apoptosis in human NCI-H1299 cells assessed as late apoptotic cells at 10 uM measured after 48 hrs by Annexin V/FITC staining based flow cytometric analysis (reference value: 1.96%); format: functional
A549 [30] = assay: Induction of apoptosis in human A549 cells assessed as viable cells at 10 uM measured after 48 hrs by Annexin V/FITC staining based flow cytometric analysis (reference value: 90.8 %); format: functional; conditions: read-out: Activity
A549 [31] = assay: Induction of apoptosis in human A549 cells assessed as early apoptotic cells at 10 uM measured after 48 hrs by Annexin V/FITC staining based flow cytometric analysis (reference value: 1.31 %); format: functional

- inhibition [10]: Dose-dependent-effect
- inhibition [14]: Dose-dependent-effect
- half-life [18]: 3.85 h
Structure (SMILES): CCCNC(=O)O[C@@H]1/C=C(\C)C[C@H]2C=C(C[C@@H]3OC(=O)[C@H](CSC(=S)N(C)C)[C@H]31)C(=O)O2
- Activity (A549 [1]): 1.56%
- Activity (A549 [2]): Active
- Activity [3]: Non-toxic
- Activity (NCI-H1299 [4]): Active
- Activity (NCI-H1299 [5]): Active
- Activity [6]: Non-toxic
- Activity (A549 [7]): Active
- Activity (NCI-H1299 [8]): 1.2%
- Activity (NCI-H1299 [9]): Active
- inhibition (A549 [11]): Active
- Activity (A549 [12]): 3.5%
- Activity (A549 [13]): 3.24%
- Activity (A549 [15]): Active
- Activity (NCI-H1299 [16]): Active
- Activity (NCI-H1299 [17]): 15.6%
- Activity (A549 [19]): Active
- Activity (A549 [20]): Active
- Activity (NCI-H1299 [21]): Dose-dependent-effect
- Activity (A549 [22]): 16.1%
- Activity (NCI-H1299 [23]): 7.41%
- viability at 5 µM (NCI-H1299 [24]): 72.7%
- Activity (NCI-H1299 [25]): Active
- Activity (A549 [26]): Active
- Activity (NCI-H1299 [27]): Active
- Activity (A549 [28]): Active
- Activity (NCI-H1299 [29]): 21.9%
- viability at 10 µM (A549 [30]): 68.8%
- Activity (A549 [31]): 3.68%
